Data: patent US9382197B2, “Substituted hydroxamic acids and uses thereof” (Millennium Pharmaceuticals, Inc., priority 2010, dated 2016)

Target: T1, purified human HDAC6 (Homo sapiens, UniProt Q9UBN7)
T1 construct: purchased BPS Bioscience 5006
T1 sequence (Q9UBN7 1-1215): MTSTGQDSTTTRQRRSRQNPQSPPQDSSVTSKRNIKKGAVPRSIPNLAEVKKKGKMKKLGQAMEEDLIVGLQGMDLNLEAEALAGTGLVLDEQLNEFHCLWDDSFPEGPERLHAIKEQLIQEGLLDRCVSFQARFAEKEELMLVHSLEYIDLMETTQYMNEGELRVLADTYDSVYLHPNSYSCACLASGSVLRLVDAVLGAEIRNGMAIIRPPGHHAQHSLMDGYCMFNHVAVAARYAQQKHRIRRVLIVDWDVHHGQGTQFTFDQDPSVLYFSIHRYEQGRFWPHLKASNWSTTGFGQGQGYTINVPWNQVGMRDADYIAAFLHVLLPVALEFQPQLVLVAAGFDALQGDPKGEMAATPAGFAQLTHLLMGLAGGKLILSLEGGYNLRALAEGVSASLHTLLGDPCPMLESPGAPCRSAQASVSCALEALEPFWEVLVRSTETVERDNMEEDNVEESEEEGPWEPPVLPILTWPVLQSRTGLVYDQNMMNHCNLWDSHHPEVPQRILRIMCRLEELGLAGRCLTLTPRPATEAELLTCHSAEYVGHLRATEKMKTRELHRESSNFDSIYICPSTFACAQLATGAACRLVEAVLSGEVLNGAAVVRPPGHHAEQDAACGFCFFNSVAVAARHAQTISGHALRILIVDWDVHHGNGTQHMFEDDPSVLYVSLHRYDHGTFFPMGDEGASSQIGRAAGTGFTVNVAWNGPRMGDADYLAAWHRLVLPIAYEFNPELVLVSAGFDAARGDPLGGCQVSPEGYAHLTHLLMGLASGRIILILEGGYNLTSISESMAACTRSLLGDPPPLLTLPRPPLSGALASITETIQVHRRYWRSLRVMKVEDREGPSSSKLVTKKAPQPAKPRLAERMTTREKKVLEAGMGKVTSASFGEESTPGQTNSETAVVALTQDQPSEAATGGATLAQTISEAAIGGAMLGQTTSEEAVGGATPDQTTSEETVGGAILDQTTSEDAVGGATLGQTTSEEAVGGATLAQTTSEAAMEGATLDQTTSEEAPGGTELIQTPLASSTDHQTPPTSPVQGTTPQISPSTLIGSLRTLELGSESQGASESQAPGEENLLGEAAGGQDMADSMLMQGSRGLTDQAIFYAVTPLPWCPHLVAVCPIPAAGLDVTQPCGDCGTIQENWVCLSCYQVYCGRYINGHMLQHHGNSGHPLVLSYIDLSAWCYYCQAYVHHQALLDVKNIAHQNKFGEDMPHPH
Test: HDAC6 Enzyme Assay
Format: biochemical
Protocol: To measure the inhibition of HDAC6 activity, purified human HDAC6 (BPS Bioscience; Cat. No. 5006) is incubated with substrate Ac-Arg-Gly-Lys(Ac)-AMC peptide (Bachem Biosciences; Cat. No. 1-1925) for 1 hour at 30° C. in the presence of test compounds or vehicle DMSO control. The reaction is stopped with the HDAC inhibitor trichostatin A (Sigma; Cat. No. T8552) and the amount of Arg-Gly-Lys-AMC generated is quantitated by digestion with trypsin (Sigma; Cat. No. T1426) and subsequent measurement of the amount of AMC released using a fluorescent plate reader (Pherastar; BMG Technologies) set at Ex 340 nm and Em 460 nm. Concentration response curves are generated by calculating the fluorescence increase in test compound-treated samples relative to DMSO-treated controls, and enzyme inhibition (IC50) values are determined from those curves.

[1] = purified human HDAC6, substrate Ac-Arg-Gly-Lys(Ac)-AMC, 1 hour at 30° C., reported as bins
[2] = bin: greater than 500 nM and less than 1 μM (lower bound in nM, upper bound in μM)

Structure (SMILES) | IC50 [1] [nM] | further results
CC(C)Oc1ccc(C(=O)NC(C)c2ccc(C(=O)NO)cc2)cc1 (stereo not shown) [Compound I-38, N-(1-{4-[(hydroxyamino)carbonyl]phenyl}ethyl)-4-isopropoxybenzamide] | < 100 | –
CC(NC(=O)c1cc(Cl)c(Cl)n1C)c1cccc(C(=O)NO)c1 (stereo not shown) [Compound I-39, 4,5-dichloro-N-(1-{3-[(hydroxyamino)carbonyl]phenyl}ethyl)-1-methyl-1H-pyrrole-2-carboxamide] | – | IC50 (bin: greater than 1 μM): > 1000 nM
CC(C)(C)C(NC(=O)C1(c2ccc(Cl)cc2)CC1)c1ccc(C(=O)NO)cc1 (stereo not shown) [Compound I-41, 4-[1-({[1-(4-chlorophenyl)cyclopropyl]carbonyl}amino)-2,2-dimethylpropyl]-N-hydroxybenzamide] | – | IC50 [2]: 500 to 1000 nM
Cc1nc(C(=O)NC(c2ccc(C(=O)NO)cc2)C(C)(C)C)cs1 (stereo not shown) [Compound I-42, N-(1-{4-[(hydroxyamino)carbonyl]phenyl}-2,2-dimethylpropyl)-2-methyl-1,3-thiazole-4-carboxamide] | 100 to 500 | –
COc1ccc(NC(=O)NC(C)c2ccc(C(=O)NO)cc2)c(OC)c1 (stereo not shown) [Compound I-44, 4-[1-({[(2,4-dimethoxyphenyl)amino]carbonyl}amino)ethyl]-N-hydroxybenzamide] | < 100 | –
O=C(NO)c1ccc([C@H](NC(=O)C23CC4CC(CC(C4)C2)C3)C2CC2)cc1 [Compound I-46, N-((R)-cyclopropyl{4-[(hydroxyamino)carbonyl]phenyl}methyl)adamantane-1-carboxamide] | 100 to 500 | –
CC(C)(C)C(NC(=O)c1cc(C(F)(F)F)cc(C(F)(F)F)c1)c1ccc(C(=O)NO)cc1 (stereo not shown) [Compound I-52, N-(1-{4-[(hydroxyamino)carbonyl]phenyl}-2,2-dimethylpropyl)-3,5-bis(trifluoromethyl)benzamide] | – | IC50 [2]: 500 to 1000 nM
CC(NC(=O)c1cnnc2ccccc12)c1ccc(C(=O)NO)cc1 (stereo not shown) [Compound I-56, N-(1-{4-[(hydroxyamino)carbonyl]phenyl}ethyl)cinnoline-4-carboxamide] | – | IC50 (bin: greater than 1 μM): > 1000 nM
CC(NC(=O)c1ccccc1C(F)(F)F)c1cccc(C(=O)NO)c1 (stereo not shown) [Compound I-57, N-(1-{3-[(hydroxyamino)carbonyl]phenyl}ethyl)-2-(trifluoromethyl)benzamide] | – | IC50 (bin: greater than 1 μM): > 1000 nM
CC(C)C(NC(=O)C12CC3CC(CC(C3)C1)C2)c1ccc(C(=O)NO)cc1 (stereo not shown) [Compound I-58, N-(1-{4-[(hydroxyamino)carbonyl]phenyl}-2-methylpropyl)adamantane-1-carboxamide] | < 100 | –
CC(NC(=O)C(C)(C)C)c1ccc(C(=O)NO)cc1 (stereo not shown) [Compound I-59, 4-{1-[(2,2-dimethylpropanoyl)amino]ethyl}-N-hydroxybenzamide] | < 100 | –
CC(NC(=O)c1ccc(-n2cccc2)cc1)c1ccc(C(=O)NO)cc1 (stereo not shown) [Compound I-63, N-(1-{4-[(hydroxyamino)carbonyl]phenyl}ethyl)-4-(1H-pyrrol-1-yl)benzamide] | < 100 | –
Cn1ccc(C(=O)NC(c2ccc(C(=O)NO)cc2)C(C)(C)C)n1 (stereo not shown) [Compound I-66, N-(1-{4-[(hydroxyamino)carbonyl]phenyl}-2,2-dimethylpropyl)-1-methyl-1H-pyrazole-3-carboxamide] | 100 to 500 | –
CC(C)[C@@H](NC(=O)c1cc2ccccc2[nH]1)c1ccc(C(=O)NO)cc1 [Compound I-68, N-((1R)-1-{4-[(hydroxyamino)carbonyl]phenyl}-2-methylpropyl)-1H-indole-2-carboxamide] | < 100 | –
Cc1ccc2[nH]c(C(=O)NC(c3ccc(C(=O)NO)cc3)C(C)C)cc2c1 (stereo not shown) [Compound I-69, N-(1-{4-[(hydroxyamino)carbonyl]phenyl}-2-methylpropyl)-5-methyl-1H-indole-2-carboxamide] | < 100 | –
COc1ccc(CCCC(=O)NC(C)c2ccc(C(=O)NO)cc2)cc1 (stereo not shown) [Compound I-70, N-hydroxy-4-(1-{[4-(4-methoxyphenyl)butanoyl]amino}ethyl)benzamide] | – | IC50 (bin: greater than 1 μM): > 1000 nM
CC(NC(=O)Nc1ccc2c(c1)OCO2)c1ccc(C(=O)NO)cc1 (stereo not shown) [Compound I-71, 4-(1-{[(1,3-benzodioxol-5-ylamino)carbonyl]amino}ethyl)-N-hydroxybenzamide] | < 100 | –
CC(NC(=O)c1cc2oc(-c3ccc(C(F)(F)F)cc3)cc2n1C)c1cccc(C(=O)NO)c1 (stereo not shown) [Compound I-72, N-(1-{3-[(hydroxyamino)carbonyl]phenyl}ethyl)-4-methyl-2-[4-(trifluoromethyl)phenyl]-4H-furo[3,2-b]pyrrole-5-carboxamide] | – | IC50 (bin: greater than 1 μM): > 1000 nM
C[C@@H](NC(=O)C(C)(C)C)c1ccc(C(=O)NO)cc1 [Compound I-73, 4-{(1R)-1-[(2,2-dimethylpropanoyl)amino]ethyl}-N-hydroxybenzamide] | < 100 | –

Continued, in another order:

IC50 [1] [nM] | Structure (SMILES) | further results
< 100 | CC(NC(=O)Nc1ccc(F)cc1)c1ccc(C(=O)NO)cc1 (stereo not shown) [Compound I-37, 4-[1-({[(4-fluorophenyl)amino]carbonyl}amino)ethyl]-N-hydroxybenzamide] | –
100 to 500 | CC(C)C(NC(=O)c1ccc(F)cc1)c1ccc(C(=O)NO)cc1 (stereo not shown) [Compound I-40, 4-fluoro-N-(1-{4-[(hydroxyamino)carbonyl]phenyl}-2-methylpropyl)benzamide] | –
100 to 500 | CC(C)C(NC(=O)c1ccc2ncsc2c1)c1ccc(C(=O)NO)cc1 (stereo not shown) [Compound I-43, N-(1-{4-[(hydroxyamino)carbonyl]phenyl}-2-methylpropyl)-1,3-benzothiazole-6-carboxamide] | –
< 100 | CC(NC(=O)CCc1ccccc1)c1ccc(C(=O)NO)cc1 (stereo not shown) [Compound I-45, N-hydroxy-4-{1-[(3-phenylpropanoyl)amino]ethyl}benzamide] | –
100 to 500 | COc1ccc(S(=O)(=O)NC(C)c2ccc(C(=O)NO)cc2)cc1 (stereo not shown) [Compound I-47, N-hydroxy-4-(1-{[(4-methoxyphenyl)sulfonyl]amino}ethyl)benzamide] | –
100 to 500 | Cc1oc(-c2ccccc2)nc1CC(=O)NC(c1ccc(C(=O)NO)cc1)C(C)C (stereo not shown) [Compound I-48, N-hydroxy-4-(2-methyl-1-{[(5-methyl-2-phenyl-1,3-oxazol-4-yl)acetyl]amino}propyl)benzamide] | –
< 100 | C[C@H](NC(=O)c1cc2ccccc2s1)c1ccc(C(=O)NO)cc1 [Compound I-53, N-((1S)-1-{4-[(hydroxyamino)carbonyl]phenyl}ethyl)-1-benzothiophene-2-carboxamide] | –
< 100 | Cc1ccc(NC(=O)NC(C)c2ccc(C(=O)NO)cc2)cc1C (stereo not shown) [Compound I-55, 4-[1-({[(3,4-dimethylphenyl)amino]carbonyl}amino)ethyl]-N-hydroxybenzamide] | –
< 100 | CCC[C@@H](NC(=O)c1sc2ccccc2c1C)c1ccc(C(=O)NO)cc1 [Compound I-62, N-((1R)-1-{4-[(hydroxyamino)carbonyl]phenyl}butyl)-3-methyl-1-benzothiophene-2-carboxamide] | –
< 100 | CC(C)[C@@H](NC(=O)c1cccn1C)c1ccc(C(=O)NO)cc1 [Compound I-65, N-((1R)-1-{4-[(hydroxyamino)carbonyl]phenyl}-2-methylpropyl)-1-methyl-1H-pyrrole-2-carboxamide] | –
100 to 500 | CC(C)[C@H](NC(=O)c1cc2ccccc2s1)c1ccc(C(=O)NO)cc1 [Compound I-67, N-((1S)-1-{4-[(hydroxyamino)carbonyl]phenyl}-2-methylpropyl)-1-benzothiophene-2-carboxamide] | –
< 100 | CC(NC(=O)Nc1ccccc1F)c1ccc(C(=O)NO)cc1 (stereo not shown) [Compound I-74, 4-[1-({[(2-fluorophenyl)amino]carbonyl}amino)ethyl]-N-hydroxybenzamide] | –
